{"source": "patent US7053113B2", "about": "“Mannich base prodrugs of 3-(pyrrol-2-yl-methylidene)-2-indolinone derivatives” (Sugen, Inc., priority 2000, dated 2006)", "key": {"[1]": {"experiment": "Plasma Stability Test: conversion of prodrug to drug after IV administration to dogs", "assay_type": "in vivo", "conditions": "IV at 2 mg/mL, HPLC analysis of blood plasma for 4 hours following dosing", "description": "The prodrug (3Z)-3-[(3,5-dimethyl-1H-pyrrol-2-yl)-methylidene]-1-(1-pyrrolidinylmethyl)-1,3-dihydro-2H-indol-2-one was administered IV at 2 mg/mL to dogs. Levels of both prodrug and drug (3(Z)-3-[(3,5-dimethyl-1H-pyrrol-2-yl)-methylidene]-1,3-dihydro-2H-indol-2-one) were followed by HPLC analysis of blood plasma for 4 hours following dosing."}, "[2]": {"experiment": "Aqueous solubility of the prodrug compared with the parent compound", "assay_type": "physicochemical", "conditions": "compared with parent compound (II)"}}}
{"molecule": "Cc1cc(C)c(/C=C2\\C(=O)N(CN3CCCC3)c3ccccc32)[nH]1", "note": "[Example 2, (3Z)-3-[(3,5-dimethyl-1H-pyrrol-2-yl)-methylidene]-1-(1-pyrrolidinylmethyl)-1,3-dihydro-2H-indol-2-one]", "values": [{"measurement": "prodrug converted into drug (area under the curve of drug concentration vs time)", "setting": "[1]", "result": 80, "unit": "%"}, {"measurement": "aqueous solubility over the parent compound", "setting": "[2]", "result": "increased aqueous solubility"}]}
